Measurements reported in patent US8304419B2, “Chemical compounds” (priority 2007, dated 2012).
Read-outs that look alike come from different tables or passages of the source.

System: HIV wild type (WTRVA)
Assay: HeLa cell assay, wild type virus (WTRVA)
Type: cell-based, HIV-1
Set-up: scale not given here
Settings: Human immunodeficiency virus 1, HeLa

Structure (SMILES)	IC50 (HeLa-CD4-LTR-β-gal cells, wild type virus, read-out: WTRVA activity level)	IC50 (HeLa cell assay, read-out: IC50 against WTRVA)
N#Cc1cc(Cl)cc(Oc2c(Cl)ccc(CNC(=O)c3cc4cc(OCC[C@H](O)CO)ccc4[nH]3)c2F)c1 [Example 107, N-({4-chloro-3-[(3-chloro-5-cyanophenyl)oxy]-2-fluorophenyl}methyl)-5-{[(3S)-3,4-dihydroxybutyl]oxy}-1H-indole-2-carboxamide]	< 0.01 µM	–
CCc1cc(Cl)cc(Oc2c(Cl)ccc(CNC(=O)c3[nH]cnc3Cl)c2F)c1 [Example 290, 4-chloro-N-({4-chloro-3-[(3-chloro-5-ethylphenyl)oxy]-2-fluorophenyl}methyl)-1H-imidazole-5-carboxamide]	–	< 0.01 µM
